The values below come from patent publication US12134611B2, “Compounds and compositions for treating conditions associated with NLRP activity” (Novartis AG, priority 2018, dated 2024).

Bounds are passed on as bounds.

In this assay the target is T1, hNLRP3 (Homo sapiens, UniProt Q96P20).
T1 construct: THP-1 cells were purchased from the American Type Culture Collection; host or cells: THP-1 cells, PMA-differentiated, stimulated with gramicidin
T1 sequence (Q96P20 whole entry): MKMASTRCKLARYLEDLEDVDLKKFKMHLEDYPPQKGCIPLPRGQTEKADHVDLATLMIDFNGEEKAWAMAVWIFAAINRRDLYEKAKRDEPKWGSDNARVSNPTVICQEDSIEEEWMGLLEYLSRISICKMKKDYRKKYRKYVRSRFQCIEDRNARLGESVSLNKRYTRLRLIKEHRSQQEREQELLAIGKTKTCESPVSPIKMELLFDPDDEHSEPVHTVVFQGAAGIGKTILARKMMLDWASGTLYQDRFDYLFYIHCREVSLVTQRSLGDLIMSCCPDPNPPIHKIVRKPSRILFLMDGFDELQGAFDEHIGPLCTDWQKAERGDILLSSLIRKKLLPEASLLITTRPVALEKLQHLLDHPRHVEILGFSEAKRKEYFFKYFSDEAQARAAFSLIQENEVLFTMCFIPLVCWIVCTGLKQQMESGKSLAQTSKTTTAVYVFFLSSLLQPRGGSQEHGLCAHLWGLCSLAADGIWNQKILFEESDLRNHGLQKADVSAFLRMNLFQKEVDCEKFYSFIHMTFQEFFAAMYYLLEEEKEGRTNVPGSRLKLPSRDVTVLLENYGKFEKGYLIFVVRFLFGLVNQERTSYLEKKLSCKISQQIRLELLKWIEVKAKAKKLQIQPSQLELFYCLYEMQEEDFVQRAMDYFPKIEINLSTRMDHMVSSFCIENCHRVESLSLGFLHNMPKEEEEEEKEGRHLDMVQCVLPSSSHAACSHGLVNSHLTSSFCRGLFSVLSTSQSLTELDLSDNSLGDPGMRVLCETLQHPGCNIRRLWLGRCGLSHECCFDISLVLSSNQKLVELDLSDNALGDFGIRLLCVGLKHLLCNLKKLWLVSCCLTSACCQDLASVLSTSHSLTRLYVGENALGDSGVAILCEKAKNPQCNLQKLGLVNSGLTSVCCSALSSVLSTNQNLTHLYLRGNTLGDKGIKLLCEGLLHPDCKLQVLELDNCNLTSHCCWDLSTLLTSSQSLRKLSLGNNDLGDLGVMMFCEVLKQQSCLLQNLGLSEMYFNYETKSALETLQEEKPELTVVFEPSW
Description: IL-1β production in PMA-differentiated THP-1 cells stimulated with gramicidin (hTHP-1 assay). As to conditions: read-out: NLRP3 Antagonist, hNLRP3 (THP-1, IL-1b) Normalized: GeoMean IC50. The assay is classed as cell-based.
Consider `CC(C)(O)c1ccc2c(c1)S(=O)(=NC(=O)Cc1cc3c(c4c1CCC4)CCC3)NC2=O` (stereo not shown) [Compound 114, 2-(1,2,3,6,7,8-hexahydro-as-indacen-4-yl)-N-(6-(2-hydroxypropan-2-yl)-1-oxido-3-oxo-2,3-dihydro-1l4-benzo[d]isothiazol-1-ylidene)acetamide], for which the IC50 is above 30 µM.

With `O=C(N=S1(=O)NC(=O)c2ccc(-n3cccn3)cc21)Nc1c2c(cc3c1CCC3)CCC2` (single isomer, unassigned) [Compound 211a, (S or R)-1-(1,2,3,5,6,7-hexahydro-s-indacen-4-yl)-3-(1-oxido-3-oxo-6-(1H-pyrazol-1-yl)-2,3-dihyclro-1l4-benzo[d]isothiazol-1-ylidene)urea], the IC50 lay in the range of 5 to 30 µM.

As for `Cc1c(C(F)(F)F)nc2c(c1NC(=O)N=S1(=O)NC(=O)c3ccc(C(C)(C)O)cc31)CCC2` (single isomer, unassigned) [Compound 108b, (S or R)-1-(6-(2-hydroxypropan-2-yl)-1-oxido-3-oxo-2,3-dihydro-1l4-benzo[d]isothiazol-1-ylidene)-3-(3-methyl-2-(trifluoromethyl)-6,7-dihydro-5H-cyclopenta[b]pyridin-4-yl)urea], the IC50 was above 30 µM.

Take `CC(C)(O)c1ccc2c(c1)S(=O)(=NC(=O)Nc1c3c(cc4c1CC4)CCC3)NC2=O` (single isomer, unassigned) [Compound 112a, (R or S)-1-(6-(2-hydroxypropan-2-yl)-1-oxido-3-oxo-2,3-dihydro-1l4-benzo[d]isothiazol-1-ylidene)-3-(2,4,5,6-tetrahydro-1H-cyclobuta[f]inden-3-yl)urea]: the IC50 is 0.04 to 0.2 µM.

Consider `O=C(N=S1(=O)CC(Cc2ccccc2)C(=O)N1)Nc1c2c(cc3c1CCC3)CCC2` (single isomer, unassigned) [Compound 249a, 1-((1R,4S or 4R)-4-benzyl-1-oxido-3-oxo-1l6-isothiazolidin-1-ylidene)-3-(1,2,3,5,6,7-hexahydro-s-indacen-4-yl)urea], for which the IC50 lay in the range of 0.2 to 1 µM.

Take `O=C(N=S1(=O)CC2(COC2)C(=O)N1)Nc1c2c(cc3c1CCC3)CCC2` (stereo not shown) [Compound 132, 1-(1,2,3,5,6,7-hexahydro-s-indacen-4-yl)-3-(6-oxido-8-oxo-2-oxa-6l6-thia-7-azaspiro[3.4]octan-6-ylidene)urea]: the IC50 lay within 1 to 5 µM.

In the case of `CC(C)(O)c1cc2c(s1)S(=O)(=NC(=O)Nc1c3c(cc4c1CCC4)CCC3)NC2=O` (stereo not shown) [Compound 229, 1-(1,2,3,5,6,7-hexahydro-s-indacen-4-yl)-3-(5-(2-hydroxypropan-2-yl)-1-oxido-3-oxo-2,3-dihydro-1l4-thieno[3,2-d]isothiazol-1-ylidene)urea], the IC50 lay in the range of 5 to 30 µM.

Turning to `O=C(N=S1(=O)CC2(CN1)COC2)Nc1c2c(cc3c1CCC3)CCC2` (stereo not shown) [Compound 139b], the IC50 was above 30 µM.

With `COC(=O)c1ccc2c(c1)S(=O)(=NC(=O)Nc1c3c(cc4c1CCC4)CCC3)NC2=O` (single isomer, unassigned) [Compound 134a, methyl (R or S)-1-(((1,2,3,5,6,7-hexahydro-s-indacen-4-yl)carbamoyl)imino)-3-oxo-2,3-dihydro-1H-1l4-benzo[d]isothiazole-6-carboxylate 1-oxide], the IC50 was above 30 µM.

Regarding `CC(C)(O)c1ccc2c(c1)S(=O)(=NC(=O)Cc1c3c(cc4c1CCC4)CCC3)NC2=O` (stereo not shown) [Compound 115, 2-(1,2,3,5,6,7-hexahydro-s-indacen-4-yl)-N-(6-(2-hydroxypropan-2-yl)-1-oxido-3-oxo-2,3-dihydro-1l4-benzo[d]isothiazol-1-ylidene)acetamide], the IC50 is above 30 µM.

In the case of `O=C(N=S1(=O)NC(=O)c2ccc(Br)cc21)Nc1c2c(cc3c1CCC3)CCC2` (single isomer, unassigned) [Compound 103a, (R or S)-1-(6-bromo-1-oxido-3-oxo-2,3-dihydro-1l4-benzo[d]isothiazol-1-ylidene)-3-(1,2,3,5,6,7-hexahydro-s-indacen-4-yl)urea], the IC50 is above 30 µM.

In the case of `CC(C)(O)c1cccc(C2CC(=O)NS2(=O)=NC(=O)Nc2c3c(cc4c2CCC4)CCC3)c1` (stereo not shown) [Compound 253, 1-(1,2,3,5,6,7-hexahydro-s-indacen-4-yl)-3-(5-(3-(2-hydroxypropan-2-yl)phenyl)-1-oxido-3-oxo-1l6-isothiazolidin-1-ylidene)urea], the IC50 lay within 0.2 to 1 µM.

On to `O=C(N=S1(=O)CCCN1)Nc1c2c(cc3c1CCC3)CCC2` (single isomer, unassigned) [Compound 119a, (R or S)-1-(1,2,3,5,6,7-hexahydro-s-indacen-4-yl)-3-(1-oxido-1l6-isothiazolidin-1-ylidene)urea], for which the IC50 lay within 5 to 30 µM.

Consider `O=C(N=S1(=O)NC(=O)c2ccc(-n3cccn3)cc21)Nc1c2c(cc3c1CCC3)CCC2` (stereo not shown) [Compound 211, 1-(1,2,3,5,6,7-hexahydro-s-indacen-4-yl)-3-(1-oxido-3-oxo-6-(1H-pyrazol-1-yl)-2,3-dihydro-1l4-benzo[d]isothiazol-1-ylidene)urea], for which the IC50 is above 30 µM.

As for `Cc1c(C(F)(F)F)nc2c(c1NC(=O)N=S1(=O)NC(=O)c3ccc(C(C)(C)O)cc31)CCC2` (stereo not shown) [Compound 108, 1-(6-(2-hydroxypropan-2-yl)-1-oxido-3-oxo-2,3-dihydro-1l4-benzo[d]isothiazol-1-ylidene)-3-(3-methyl-2-(trifluoromethyl)-6,7-dihydro-5H-cyclopenta[b]pyridin-4-yl)urea], the IC50 fell in the range of 1 to 5 µM.

Regarding `CN(C)Cc1ccc2c(c1)S(=O)(=NC(=O)Nc1c3c(cc4c1CCC4)CCC3)NC2` (stereo not shown) [Compound 133, 1-(6-((dimethylamino)methyl)-1-oxido-2,3-dihydro-1l4-benzo[d]isothiazol-1-ylidene)-3-(1,2,3,5,6,7-hexahydro-s-indacen-4-yl)urea], the IC50 lay within 5 to 30 µM.

For `Cc1c(C2CC2)nc2c(c1NC(=O)N=S1(=O)NC(=O)c3ccc(C(C)(C)O)cc31)CCC2` (stereo not shown) [Compound 105, 1-(2-cyclopropyl-3-methyl-6,7-dihydro-5H-cyclopenta[b]pyridin-4-yl)-3-(6-(2-hydroxypropan-2-yl)-1-oxido-3-oxo-2,3-dihydro-1l4-benzo[d]isothiazol-1-ylidene)urea], the IC50 was in the range of 0.2 to 1 µM.

With `O=C(N=S1(=O)NC(=O)c2cccnc21)Nc1c2c(cc3c1CCC3)CCC2` (single isomer, unassigned) [Compound 223a, (S or S)-1-(1,2,3,5,6,7-hexahydro-s-indacen-4-yl)-3-(1-oxido-3-oxo-2,3-dihydro-1l4-isothiazolo[5,4-b]pyridin-1-ylidene)urea], the concentration for half-maximal inhibition (IC50) is 1 to 5 µM.

Consider `O=C(N=S1(=O)CCC(Cc2ccccc2)C(=O)N1)Nc1c2c(cc3c1CCC3)CCC2` (stereo not shown) [Compound 266, 1-(4-benzyl-1-oxido-3-oxo-1l6,2-thiazinan-1-ylidene)-3-(1,2,3,5,6,7-hexahydro-s-indacen-4-yl)urea], for which the IC50 lay within 5 to 30 µM.
